Assay results: patent publication US12492188B2, “1H-benzo[D]imidazole derivatives as TLR9 inhibitors for the treatment of fibrosis” (BRISTOL-MYERS SQUIBB COMPANY, priority 2020, dated 2025)
Like-named read-outs stand apart in the source and are kept apart here. Values belong to the compound of their own block, whether it stands above or below them.

Experiments:
Assay type in all cases: cell-based
[1] = biological target: T1, human TLR9 (Homo sapiens, UniProt Q9NR96); assay: TLR9 inhibition reporter assay (HEK-Blue cells, secreted embryonic alkaline phosphatase reporter)
T1 construct: host or cells: HEK-Blue cells (HEK293-derived reporter line)
T1 sequence (Q9NR96 26-1032): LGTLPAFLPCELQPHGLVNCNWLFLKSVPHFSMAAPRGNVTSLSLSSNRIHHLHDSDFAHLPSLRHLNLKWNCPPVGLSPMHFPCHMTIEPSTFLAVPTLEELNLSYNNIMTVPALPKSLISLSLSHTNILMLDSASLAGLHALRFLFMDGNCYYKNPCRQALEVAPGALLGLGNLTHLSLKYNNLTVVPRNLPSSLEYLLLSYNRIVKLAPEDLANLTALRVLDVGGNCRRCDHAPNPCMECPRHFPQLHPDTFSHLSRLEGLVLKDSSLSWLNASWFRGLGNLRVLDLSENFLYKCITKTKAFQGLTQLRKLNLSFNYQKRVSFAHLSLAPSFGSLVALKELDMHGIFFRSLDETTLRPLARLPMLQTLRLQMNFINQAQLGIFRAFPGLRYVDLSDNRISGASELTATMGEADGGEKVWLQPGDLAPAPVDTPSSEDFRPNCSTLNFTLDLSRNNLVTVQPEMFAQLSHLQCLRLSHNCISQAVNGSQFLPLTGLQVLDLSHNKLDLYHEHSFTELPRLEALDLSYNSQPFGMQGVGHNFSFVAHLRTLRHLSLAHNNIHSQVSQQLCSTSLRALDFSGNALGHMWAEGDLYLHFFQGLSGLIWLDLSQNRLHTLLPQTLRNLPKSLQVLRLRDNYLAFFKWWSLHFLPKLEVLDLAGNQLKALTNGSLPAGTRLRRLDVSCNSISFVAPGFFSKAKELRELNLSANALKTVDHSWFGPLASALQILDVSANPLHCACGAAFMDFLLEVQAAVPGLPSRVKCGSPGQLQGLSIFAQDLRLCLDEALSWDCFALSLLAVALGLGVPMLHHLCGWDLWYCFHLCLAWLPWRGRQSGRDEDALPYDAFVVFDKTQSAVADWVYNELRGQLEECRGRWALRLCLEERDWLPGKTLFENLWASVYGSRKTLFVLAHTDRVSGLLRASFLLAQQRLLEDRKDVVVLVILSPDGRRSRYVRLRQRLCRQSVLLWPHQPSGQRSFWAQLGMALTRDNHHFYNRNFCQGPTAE
Method in brief: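 Steps: seed receptor-specific HEK-Blue cells; add compound, 0.05 nM–50 μM; wait 30 min at room temperature; add final gardiquimod 7.5 μM, R848 15.9 μM or ODN2006 5 nM for TLR7, TLR8 or TLR9; incubate 22 h at 37 °C; detect NF-κB/AP-1-driven SEAP.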

[2] = biological target: T2, human TLR8 (Homo sapiens, UniProt Q9NR97); assay: TLR8 inhibition reporter assay (HEK-Blue cells, secreted embryonic alkaline phosphatase reporter); details: HEK-Blue cells overexpressing human TLR8, stimulated with R848 15.9 μM; read-out: TLR 8 IC50
T2 construct: host or cells: HEK-Blue cells (HEK293-derived reporter line)
T2 sequence (Q9NR97 27-1041): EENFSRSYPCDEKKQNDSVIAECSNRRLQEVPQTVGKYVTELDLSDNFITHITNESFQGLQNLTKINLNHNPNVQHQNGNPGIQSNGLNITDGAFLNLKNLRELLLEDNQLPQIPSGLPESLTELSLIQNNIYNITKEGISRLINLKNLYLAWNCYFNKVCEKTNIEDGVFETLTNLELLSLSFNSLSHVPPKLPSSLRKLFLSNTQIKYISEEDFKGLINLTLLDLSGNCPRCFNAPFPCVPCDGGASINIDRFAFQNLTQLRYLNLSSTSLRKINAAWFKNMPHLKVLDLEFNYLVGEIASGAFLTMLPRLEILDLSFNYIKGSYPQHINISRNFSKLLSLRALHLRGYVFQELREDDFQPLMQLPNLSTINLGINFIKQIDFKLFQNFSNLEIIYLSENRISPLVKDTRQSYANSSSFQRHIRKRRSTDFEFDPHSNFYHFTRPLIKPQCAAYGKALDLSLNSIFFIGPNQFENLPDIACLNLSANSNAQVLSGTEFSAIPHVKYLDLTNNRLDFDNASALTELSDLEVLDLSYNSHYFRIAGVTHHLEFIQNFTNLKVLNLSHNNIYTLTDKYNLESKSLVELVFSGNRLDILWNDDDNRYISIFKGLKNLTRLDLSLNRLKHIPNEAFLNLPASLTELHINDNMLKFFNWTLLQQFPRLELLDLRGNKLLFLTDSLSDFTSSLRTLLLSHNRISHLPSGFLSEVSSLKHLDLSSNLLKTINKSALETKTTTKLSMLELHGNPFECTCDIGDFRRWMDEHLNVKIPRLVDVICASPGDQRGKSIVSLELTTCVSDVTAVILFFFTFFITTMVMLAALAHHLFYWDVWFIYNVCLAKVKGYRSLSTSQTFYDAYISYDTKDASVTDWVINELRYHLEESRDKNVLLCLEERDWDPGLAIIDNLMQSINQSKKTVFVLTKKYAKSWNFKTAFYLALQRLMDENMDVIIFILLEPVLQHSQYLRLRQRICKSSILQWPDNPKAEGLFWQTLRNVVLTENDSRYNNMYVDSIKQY
Protocol: (§1) TLR7/8/9 Inhibition Reporter Assays
(§2) HEK-Blue™-cells (Invivogen) overexpressing human TLR7, TLR8 or TLR9 receptors were used for screening inhibitors of these receptors using an inducible SLAP (secreted embryonic alkaline phosphatase) reporter gene under the control of the […] minimal promoter fused to five NF-κB and AP-1-binding sites. Briefly, cells are seeded into Greiner 384 well plates (15000 cells per well for TLR7, 20,000 for TLR8 and 25,000 for TLR9) and then treated with test compounds in DMSO to yield a final dose response concentration range of 0.05 nM-50 μM. After a 30 minute compound pre-treatment at room temperature, the cells are then stimulated with a TLR7 ligand (gardiquimod at a final concentration of 7.5 μM), TLR8 ligand (R848 at a final concentration of 15.9 μM) or TLR9 ligand (ODN2006 at a final concentration of 5 nM) to activate NF-κB and AP-1 which induce the production of SLAP. After a 22 hour incubation at 37° C., […], SLAP levels are determined with the addition of HEK-Blue™ Detection reagent (Invivogen), a cell culture medium that allows for detection of SLAP, according to manufacturer's specifications. The percent inhibition is determined as the […] in the HEK-Blue signal present in wells treated with agonist plus DMSO alone compared to wells treated with a known inhibitor.

[3] = biological target: T3, human TLR7 (Homo sapiens, UniProt Q9NYK1); assay: TLR7 inhibition reporter assay (HEK-Blue cells, secreted embryonic alkaline phosphatase reporter); details: HEK-Blue cells overexpressing human TLR7, stimulated with gardiquimod 7.5 μM; read-out: TLR 7 IC50
T3 construct: host or cells: HEK-Blue cells (HEK293-derived reporter line)
T3 sequence (Q9NYK1 27-1049): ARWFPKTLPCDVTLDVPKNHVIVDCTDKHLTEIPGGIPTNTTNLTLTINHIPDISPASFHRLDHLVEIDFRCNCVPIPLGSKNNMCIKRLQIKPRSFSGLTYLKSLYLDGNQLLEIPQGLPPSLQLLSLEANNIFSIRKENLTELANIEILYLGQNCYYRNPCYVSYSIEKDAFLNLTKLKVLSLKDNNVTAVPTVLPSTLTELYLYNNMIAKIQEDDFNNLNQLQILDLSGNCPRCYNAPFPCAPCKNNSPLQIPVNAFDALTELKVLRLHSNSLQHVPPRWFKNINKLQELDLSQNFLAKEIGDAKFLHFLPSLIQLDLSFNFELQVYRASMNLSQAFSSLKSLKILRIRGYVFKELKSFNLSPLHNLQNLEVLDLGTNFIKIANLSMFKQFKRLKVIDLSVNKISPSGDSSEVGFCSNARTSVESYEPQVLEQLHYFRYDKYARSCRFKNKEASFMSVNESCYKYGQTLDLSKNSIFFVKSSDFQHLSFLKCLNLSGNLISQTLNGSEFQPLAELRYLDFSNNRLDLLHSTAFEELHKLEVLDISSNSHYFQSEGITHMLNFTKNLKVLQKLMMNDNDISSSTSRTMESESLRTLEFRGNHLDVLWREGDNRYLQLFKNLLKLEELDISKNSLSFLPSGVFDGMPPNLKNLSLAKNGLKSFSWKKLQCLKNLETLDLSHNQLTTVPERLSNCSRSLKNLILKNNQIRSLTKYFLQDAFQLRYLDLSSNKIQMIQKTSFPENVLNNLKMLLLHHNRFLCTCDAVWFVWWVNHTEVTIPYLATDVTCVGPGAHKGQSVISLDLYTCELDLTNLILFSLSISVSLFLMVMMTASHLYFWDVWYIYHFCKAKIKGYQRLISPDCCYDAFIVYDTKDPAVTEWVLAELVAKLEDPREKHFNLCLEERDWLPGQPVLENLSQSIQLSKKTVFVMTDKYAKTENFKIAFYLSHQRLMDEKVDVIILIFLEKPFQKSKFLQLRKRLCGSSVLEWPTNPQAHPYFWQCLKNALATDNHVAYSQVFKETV
Protocol: as §1, §2

[4] = HEK-Blue cells overexpressing human TLR9, stimulated with ODN2006 5 nM, 22 hour incubation, reporter readout
[5] = HEK-Blue cells overexpressing human TLR9, stimulated with ODN2006 5 nM, read-out: TLR 9 IC50

SMILES: COc1ccc(-c2nc3cc(C4CCN(C5CCN(C6CC6)CC5)CC4)ccc3n2C)cc1OC [Example 35, 5-(1′-cyclopropyl-[1,4′-bipiperidin]-4-yl)-2-(3,4-dimethoxyphenyl)-1-methyl-1H-benzo[d]imidazole]
IC50 [1, 4]: 850 nM | IC50 [1, 5]: 852 nM | IC50 [2]: > 50 µM

SMILES: Cn1c(-c2ccc(S(C)(=O)=O)cc2)nc2ccc(C3CCN(C4CCN(C5COC5)CC4)CC3)c(F)c21 [Example 263, 7-fluoro-1-methyl-2-(4-(methylsulfonyl)phenyl)-6-(1′-(oxetan-3-yl)-[1,4′-bipiperidin]-4-yl)-1H-benzo[d]imidazole]
IC50 [3]: 11.9 µM | IC50 [1]: 1800 nM | IC50 [1, 5]: 1770 nM

SMILES: Cn1c(-c2ccc(S(C)(=O)=O)cc2)nc2ccc(C3CCN(C4CCCN(C5CCOCC5)CC4)CC3)c(F)c21 (centres unmarked) [Example 317, 7-fluoro-1-methyl-2-(4-(methylsulfonyl)phenyl)-6-(1-(1-(tetrahydro-2H-pyran-4-yl)azepan-4-yl)piperidin-4-yl)-1H-benzo[d]imidazole]
IC50 [3]: > 50 µM | IC50 [1, 5]: 18 nM | IC50 ([1]; HEK-Blue human TLR9 reporter cells): 18 nM

SMILES: Cc1cc(-c2ccc(C3CCN(C)CC3)cc2)cc2c1nc(-c1ccc(S(C)(=O)=O)cc1)n2C [Example 363, 1,4-dimethyl-6-(4-(1-methylpiperidin-4-yl)phenyl)-2-(4-(methylsulfonyl)phenyl)-1H-benzo[d]imidazole]
IC50 [3]: 4.3 µM | IC50 [1, 4]: 140 nM | IC50 [1, 5]: 100 nM

SMILES: Cc1cc(-c2ccc(CN3CCC(N4CCCC4)CC3)cc2)cc2c1nc(-c1ccc(S(C)(=O)=O)cc1)n2C [Example 369, 1,4-dimethyl-2-(4-(methylsulfonyl)phenyl)-6-(4-((4-(pyrrolidin-1-yl)piperidin-1-yl)methyl)phenyl)-1H-benzo[d]imidazole]
IC50 [3]: 0.9 µM | IC50 [1, 4]: 120 nM | IC50 [1, 5]: 121 nM

SMILES: Cc1cc(-c2ccc(CN3C[C@@H]4CN(C(C)C)C[C@@H]4C3)cc2)cc2c1nc(-c1ccc(S(C)(=O)=O)cc1)n2C [Example 397, 6-(4-((cis-5-isopropylhexahydropyrrolo[3,4-c]pyrrol-2(1H)-yl)methyl)phenyl)-1,4-dimethyl-2-(4-(methylsulfonyl)phenyl)-1H-benzo[d]imidazole]
IC50 [3]: 2.6 µM | IC50 [1, 4]: 86 nM | IC50 [1, 5]: 86 nM

Second part, the compound after the results:

IC50 [3]: 1.9 µM | IC50 [1, 4]: 24 nM
SMILES: CC(C)N1CCC(N2CCC(c3cc(F)c4nc(-c5ccc(S(C)(=O)=O)cc5)n(C5CC5)c4c3)CC2)CC1 [Example 115, 1-cyclopropyl-4-fluoro-6-(1′-isopropyl-[1,4′-bipiperidin]-4-yl)-2-(4-(methylsulfonyl)phenyl)-1H-benzo[d]imidazole]

IC50 [3]: 11.2 µM | IC50 [1, 4]: 1400 nM | IC50 [1, 5]: 1360 nM
SMILES: Cc1cc(-c2ccc(CN3CCCC3)cc2)cc2c1nc(-c1ccc(S(C)(=O)=O)cc1)n2C [Example 395, 1,4-dimethyl-2-(4-(methylsulfonyl)phenyl)-6-(4-(pyrrolidin-1-ylmethyl)phenyl)-1H-benzo[d]imidazole]

IC50 [3]: 6.7 µM | IC50 [1, 4]: 200 nM | IC50 [1, 5]: 203 nM
SMILES: Cc1cc(-c2ccc(CN3C[C@@H]4CN(CC(C)C)C[C@@H]4C3)cc2)cc2c1nc(-c1ccc(S(C)(=O)=O)cc1)n2C [Example 396, 6-(4-((cis-5-isobutylhexahydropyrrolo[3,4-c]pyrrol-2(1H)-yl)methyl)phenyl)-1,4-dimethyl-2-(4-(methylsulfonyl)phenyl)-1H-benzo[d]imidazole]

IC50 [3]: 1.7 µM | IC50 [1, 4]: 130 nM | IC50 [1, 5]: 128 nM
SMILES: Cc1cc(-c2ccc(CN3C[C@H]4CN(C)C[C@H]4C3)cc2)cc2c1nc(-c1ccc(S(C)(=O)=O)cc1)n2C [Example 398, 1,4-dimethyl-6-(4-((cis-5-methylhexahydropyrrolo[3,4-c]pyrrol-2(1H)-yl)methyl)phenyl)-2-(4-(methylsulfonyl)phenyl)-1H-benzo[d]imidazole]
